Mutagenic call data for two compounds are collected here from PubChem BioAssay AID1259407 (Chemical Carcinogenesis Research Information System (CCRIS), 2018).

The subject of this data set is CCRIS mutagenicity, Ames/micronucleus/aberration tests. Put plainly: CCRIS mutagenicity studies.
The mark [1] stands for this setting: Test System: AMES SALMONELLA TYPHIMURIUM, Strain/Indicator: TA97, Metabolic Activation: NONE, Method: STANDARD PLATE.
Setting [2] is: Test System: AMES SALMONELLA TYPHIMURIUM, Strain/Indicator: TA97, Metabolic Activation: RAT, LIVER, S-9, AROCLOR 1254, Method: STANDARD PLATE.
The mark [3] stands for this setting: Test System: AMES SALMONELLA TYPHIMURIUM, Strain/Indicator: TA98, Metabolic Activation: NONE, Method: STANDARD PLATE.
Where [4] appears, read: Test System: AMES SALMONELLA TYPHIMURIUM, Strain/Indicator: TA98, Metabolic Activation: RAT, LIVER, S-9, AROCLOR 1254, Method: STANDARD PLATE.
Setting [5] is: Test System: AMES SALMONELLA TYPHIMURIUM, Strain/Indicator: TA100, Metabolic Activation: NONE, Method: STANDARD PLATE.
Where [6] appears, read: Test System: AMES SALMONELLA TYPHIMURIUM, Strain/Indicator: TA100, Metabolic Activation: RAT, LIVER, S-9, AROCLOR 1254, Method: STANDARD PLATE.

Activity calls are given as the source filed them. The rule behind the calls is not given here.

Consider `OC[C@H]1O[C@@H](n2cnc3c(NC[C@H](O)COc4cccc5ccccc45)ncnc32)[C@H](O)[C@@H]1O`, for which the mutagenic call is “inactive; negative” under setting [1]; “inactive; negative” under setting [2]; “inactive; negative” under setting [3]; “inactive; negative” under setting [4]; “inactive; negative” under setting [5]; “inactive; negative” under setting [6]. Besides, the mutagenic call (Test System: AMES SALMONELLA TYPHIMURIUM, Strain/Indicator: TA1535, Metabolic Activation: NONE, Method: STANDARD PLATE) is “inactive; negative”; the mutagenic call (Test System: AMES SALMONELLA TYPHIMURIUM, Strain/Indicator: TA1535, Metabolic Activation: RAT, LIVER, S-9, AROCLOR 1254, Method: STANDARD PLATE) was “inactive; negative”; the mutagenic call (Test System: AMES SALMONELLA TYPHIMURIUM, Strain/Indicator: TA1538, Metabolic Activation: NONE, Method: STANDARD PLATE) is “inactive; negative”; the mutagenic call (Test System: AMES SALMONELLA TYPHIMURIUM, Strain/Indicator: TA1538, Metabolic Activation: RAT, LIVER, S-9, AROCLOR 1254, Method: STANDARD PLATE) was “inactive; negative”; the mutagenic call (Test System: CHINESE HAMSTER OVARY, Strain/Indicator: CHO-KL-BH4 (HGPRT), Metabolic Activation: NONE) was “inactive; negative”; the mutagenic call (Test System: CHINESE HAMSTER OVARY, Strain/Indicator: CHO-KL-BH4 (HGPRT), Metabolic Activation: RAT, LIVER, S-9, AROCLOR 1254) was “inactive; negative”. Also, the mutagenic call (Test System: MOUSE LYMPHOMA, Strain/Indicator: L5178Y (TK+/TK-), Metabolic Activation: NONE, Method: SUSPENSION/PLATE) was “inactive; negative” and the mutagenic call (Test System: MOUSE LYMPHOMA, Strain/Indicator: L5178Y (TK+/TK-), Metabolic Activation: RAT, LIVER, S-9, AROCLOR 1254, Method: SUSPENSION/PLATE) is “active; positive”.

For `Oc1c(Cl)ccc(Cl)c1Cl`, the mutagenic call reads like this: (End Point: IN VITRO CHROMOSOMAL ABERRATIONS, Test System: CHINESE HAMSTER LUNG CELLS (CHL), Metabolic Activation: RAT, LIVER, S-9, KC-400) “active; positive (structural changes)”; (End Point: IN VITRO CHROMOSOMAL ABERRATIONS, Test System: CHINESE HAMSTER OVARY CELLS (CHO), Metabolic Activation: NONE) “active; positive (structural changes)”; (End Point: IN VITRO CHROMOSOMAL ABERRATIONS, Test System: CHINESE HAMSTER OVARY CELLS (CHO), Metabolic Activation: RAT, LIVER, S-9, AROCLOR 1254) “active; positive (structural changes)”; (Test System: AMES SALMONELLA TYPHIMURIUM, Strain/Indicator: TA97, Metabolic Activation: HAMSTER, LIVER, S-9, AROCLOR 1254 (10%), Method: PREINCUBATION) “inactive; negative”; (Test System: AMES SALMONELLA TYPHIMURIUM, Strain/Indicator: TA97, Metabolic Activation: HAMSTER, LIVER, S-9, AROCLOR 1254 (30%), Method: PREINCUBATION) “inactive; negative”; (Test System: AMES SALMONELLA TYPHIMURIUM, Strain/Indicator: TA97, Metabolic Activation: NONE, Method: PREINCUBATION) “inactive; negative”. In addition, the mutagenic call is “inactive; negative” under setting [1]; “inactive; negative” (Test System: AMES SALMONELLA TYPHIMURIUM, Strain/Indicator: TA97, Metabolic Activation: RAT, LIVER, S-9, AROCLOR 1254 (10%), Method: PREINCUBATION); “inactive; negative” (Test System: AMES SALMONELLA TYPHIMURIUM, Strain/Indicator: TA97, Metabolic Activation: RAT, LIVER, S-9, AROCLOR 1254 (30%), Method: PREINCUBATION); “inactive; negative” under setting [2]; “inactive; negative” (Test System: AMES SALMONELLA TYPHIMURIUM, Strain/Indicator: TA98, Metabolic Activation: HAMSTER, LIVER, S-9, AROCLOR 1254 (10%), Method: PREINCUBATION); “inactive; negative” (Test System: AMES SALMONELLA TYPHIMURIUM, Strain/Indicator: TA98, Metabolic Activation: HAMSTER, LIVER, S-9, AROCLOR 1254 (30%), Method: PREINCUBATION). Further, the mutagenic call (Test System: AMES SALMONELLA TYPHIMURIUM, Strain/Indicator: TA98, Metabolic Activation: NONE, Method: PREINCUBATION) is “inactive; negative”; the mutagenic call under setting [3] is “inactive; negative”; the mutagenic call (Test System: AMES SALMONELLA TYPHIMURIUM, Strain/Indicator: TA98, Metabolic Activation: RAT, LIVER, S-9, AROCLOR 1254 (10%), Method: PREINCUBATION) is “inactive; negative”; the mutagenic call (Test System: AMES SALMONELLA TYPHIMURIUM, Strain/Indicator: TA98, Metabolic Activation: RAT, LIVER, S-9, AROCLOR 1254 (30%), Method: PREINCUBATION) was “inactive; negative”; the mutagenic call under setting [4] is “active; positive”; the mutagenic call (Test System: AMES SALMONELLA TYPHIMURIUM, Strain/Indicator: TA100, Metabolic Activation: HAMSTER, LIVER, S-9, AROCLOR 1254 (10%), Method: PREINCUBATION) was “inactive; negative”. In addition, the mutagenic call runs as follows: (Test System: AMES SALMONELLA TYPHIMURIUM, Strain/Indicator: TA100, Metabolic Activation: HAMSTER, LIVER, S-9, AROCLOR 1254 (30%), Method: PREINCUBATION) “inactive; negative”; (Test System: AMES SALMONELLA TYPHIMURIUM, Strain/Indicator: TA100, Metabolic Activation: NONE, Method: PREINCUBATION) “inactive; negative”; under setting [5], “inactive; negative”; (Test System: AMES SALMONELLA TYPHIMURIUM, Strain/Indicator: TA100, Metabolic Activation: RAT, LIVER, S-9, AROCLOR 1254 (10%), Method: PREINCUBATION) “inactive; negative”; (Test System: AMES SALMONELLA TYPHIMURIUM, Strain/Indicator: TA100, Metabolic Activation: RAT, LIVER, S-9, AROCLOR 1254 (30%), Method: PREINCUBATION) “inactive; negative”; under setting [6], “inactive; negative”. The mutagenic call runs as follows: (Test System: AMES SALMONELLA TYPHIMURIUM, Strain/Indicator: TA104, Metabolic Activation: NONE, Method: STANDARD PLATE) “inactive; negative”; (Test System: AMES SALMONELLA TYPHIMURIUM, Strain/Indicator: TA104, Metabolic Activation: RAT, LIVER, S-9, AROCLOR 1254, Method: STANDARD PLATE) “inactive; negative”; (Test System: AMES SALMONELLA TYPHIMURIUM, Strain/Indicator: TA1535, Metabolic Activation: HAMSTER, LIVER, S-9, AROCLOR 1254 (10%), Method: PREINCUBATION) “inactive; negative”; (Test System: AMES SALMONELLA TYPHIMURIUM, Strain/Indicator: TA1535, Metabolic Activation: HAMSTER, LIVER, S-9, AROCLOR 1254 (30%), Method: PREINCUBATION) “inactive; negative”; (Test System: AMES SALMONELLA TYPHIMURIUM, Strain/Indicator: TA1535, Metabolic Activation: NONE, Method: PREINCUBATION) “inactive; negative”; (Test System: AMES SALMONELLA TYPHIMURIUM, Strain/Indicator: TA1535, Metabolic Activation: RAT, LIVER, S-9, AROCLOR 1254 (10%), Method: PREINCUBATION) “inactive; negative”. For the same compound, the mutagenic call runs as follows: (Test System: AMES SALMONELLA TYPHIMURIUM, Strain/Indicator: TA1535, Metabolic Activation: RAT, LIVER, S-9, AROCLOR 1254 (30%), Method: PREINCUBATION) “inactive; negative”; (Test System: AMES SALMONELLA TYPHIMURIUM, Strain/Indicator: TA1537, Metabolic Activation: HAMSTER, LIVER, S-9, AROCLOR 1254 (30%), Method: PREINCUBATION) “inactive; negative”; (Test System: AMES SALMONELLA TYPHIMURIUM, Strain/Indicator: TA1537, Metabolic Activation: NONE, Method: PREINCUBATION) “inactive; negative”; (Test System: AMES SALMONELLA TYPHIMURIUM, Strain/Indicator: TA1537, Metabolic Activation: RAT, LIVER, S-9, AROCLOR 1254 (30%), Method: PREINCUBATION) “inactive; negative”.
